Assay results from publication PMC12036814 (Angewandte Chemie (International Ed. in English), 2025).

Legend:
[1] = test system: HEK‐293 and PDL‐hTERT cells; experiment: MTT assay, relative metabolic activity after 3 days; type: cell-based, human; conditions: 3 days of treatment
Method: Methods and Experimental Procedures
(Alfa Aesar, Haverhill, USA, Cat# J66943 ) stocks were prepared in sterile -filtered 0.1 N HCl to a
maximum concentration of 50 mM. HCl was used as vehicle control, diluted in culture medium, and
Cell culture experiments were performed in HEK 293, A549 or PDL-hTERT cells1 cultured in DMEM high
glucose medium supplemented with 10% FCS and 2 mM glutamine ( all, Sigma-Aldrich, St. Louis, USA,
Cat# G7513) in 5% CO2 atmosphere at 37 °C in Heracell 150i incubators (Thermo Fisher Scientific,
Waltham, USA). The human periodontal ligament (PDL -hTERT) cell line was provided by Prof. Denitsa
Docheva. During standard cell passaging accutase (Sigma-Aldrich) or 2,5x trypsin/0.5% EDTA in PBS
(Capricorn Scientific, Ebsdorfergrund, Germany) was used for cell detachment. Cell dishes in various
sizes (10 cm, 15 cm) and flasks (T75, T175) were used for cultivation (Sarstedt, Nümbrecht, Germany,
purchased from Thermo Fisher Scientific, Waltham, USA, Cat# 130184, 130188.
HEK or PDL-hTERT cells (1,5 x 10^3 cells/well) were seeded into 96 -well plates and grown for 24 h. […]
removed by suction and the formed formazan crystals dissolved in 200 μL DMSO. The read-out was
performed with an Infinite M200 Pro microplate reader (Tecan, Männedorf, Switzerland) at 570 nm
and background was subtracted at 630 nm. The absorbance values were normalized to DMSO/0.1 N […]

[2] = test system: AIFM1 knockout HEK293 cells; experiment: Whole proteome analysis of AIFM1 knockout HEK293 cells; type: cell-based, human; design: dose or concentration left out as unconfirmed; conditions: […] μM, 3 days, versus vehicle-treated AIFM1 knockout cells

O=C(O)c1cn(C2CC2)c2cc(N3CCNCC3)c(F)cc2c1=O [Ciprofloxacin]
approximate apparent IC50 (metabolic activity, MTT) [1]: well above the reported plasma concentrations
regulation of ETC subunits in AIFM1 knockout cells [2]: only minor additional alterations of ETC subunits
